# “Also recorded” adds a separate entry of the source.
# What was measured:
# caspase-3 = experiment: Western blot for cleaved caspase-3 in JJN-3 cells; format: cell-based, human; details: JJN-3, 10 μM, 24 or 48 h
# Description: JJN-3 cells were cultured for 24 or 48 hours with a control peptide (penetratin) or P7-A4-Pen, both at 10 μM. Cells were then lysed and lysates analysed by Western blot for cleaved caspase-3. Presence of cleaved (i.e. activated) caspase-3 is an indicator of apoptotic pathway activation. Cleaved caspase 3 was detected at high levels in the cells treated with P7-A4-Pen for 24 or 48 hours, and only at much lower levels in the cells treated with the control peptide. β-tubulin was detected as a loading control.
# To investigate the mechanism of cytotoxicity mediated by the anti-proliferative peptides of the invention, the effect of the peptide P7-A4-Pen on caspase-3 activation in JJN-3 multiple myeloma cells was investigated. Caspase-3 is a pro-apoptotic caspase which is activated by cleavage by upstream caspases 8, 9 and 10 in response to cell death stimuli. Activated, cleaved caspase-3 cleaves and activates caspases 6 and 7, which induce apoptosis. JJN-3 multiple myeloma cells were incubated with 10 μM P7-A4-Pen or Penetratin control for 24 or 48 hours, lysed and analysed by Western blot to investigate caspase-3 activation (by blotting cleaved caspase-3).
# THP-1 cells = experiment: Viability of acute myeloid leukaemia cell line THP-1; format: cell-based, human; details: 5-30 μM, 48 h
# Description: THP-1 cells were seeded in medium at 10,000 cells/well, as indicated by the dotted line. Cells were incubated for 48 hours in medium supplemented with water, C3A-Pen, P7-Pen, P7-A4-Pen or P7-N4-Pen. The peptides were included at concentrations ranging from 5-30 μM. At 48 hours cells were counted. […] The results with other peptides were less clear-cut. Results are based on 3 biological replicates, error bars show standard deviation of mean.
# (§1) The peptides were tested against the SW480 cell line in the presence and absence of LPS.
# SW480 cells = experiment: Proliferation of SW480 colon cancer cells; format: cell-based, human; details: 15 μM, 48 h, with or without LPS 100 ng/ml
# Description: SW480 cells were seeded and incubated in medium alone or supplemented with water, 15 μM penetratin, 15 μM P7-Pen or 15 μM P7-N4-Pen. Under each condition cells were incubated both without LPS and with 100 ng/ml LPS. Cells were incubated for 48 hours then counted. […] The presence of LPS made no difference to the effect of the peptides on proliferation. Results are based on 3 biological replicates, error bars show standard deviation of mean.
# SW480 (ATCC CCL-228) and Jurkat (ATCC Clone E6-1; TIB-152) cells were cultured in RPMI 1640 (Sigma-Aldrich, Schnelldorf, Germany) supplemented with 10% heat-inactivated FCS, penicillin/streptomycin (Life Technologies) and 20 mM L-Glutamine. THP-1 cells (ATCC TIB-202) were cultured in RPMI-1640 (high-glucose, ATCC) supplemented with 10% heat inactivated foetal calf serum (FCS), 100 nM penicillin/streptomycin and 5 μM β-mercaptoethanol (Sigma). THP-1 cells were differentiated with 60 ng/ml phorbol 12-myristate 13-acetate (PMA, Sigma) for 72 h, followed by 24 or 48 h in medium without PMA.
# as §1
# [1] = biological target: T1, Mal interaction with MyD88 and IRAK1 (Homo sapiens, UniProt P58753); experiment: Anti-Mal immunoprecipitation from LPS-stimulated primary human macrophages; format: cell-based; details: 15 μM, 30 min pre-treatment, LPS 30 min or 1 h
# T1 construct: endogenous in cells; host or cells: primary human macrophages, LPS-stimulated
# T1 sequence (P58753 whole entry): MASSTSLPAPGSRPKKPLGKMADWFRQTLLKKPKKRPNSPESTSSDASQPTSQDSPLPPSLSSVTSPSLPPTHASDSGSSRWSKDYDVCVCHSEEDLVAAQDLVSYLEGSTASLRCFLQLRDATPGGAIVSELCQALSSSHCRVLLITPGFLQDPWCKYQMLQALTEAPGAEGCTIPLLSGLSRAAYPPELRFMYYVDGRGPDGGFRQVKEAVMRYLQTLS
# Description: (A) Mal^Flag was overexpressed in HEK293T cells. […] Lysis buffer contained 300 mM NaCl and 1% Triton X100. (B) Mal^Flag and SLAMF1 wt or deletion mutants (Δ20 or Δ67 C-terminal amino acids) were co-expressed in HEK293T cells followed by immunoprecipitations with anti-Flag beads and Western blot analysis. (C) Primary human macrophages were pre-treated with 15 μM peptides for 30 min, stimulated with LPS for another 30 min or 1 h, lysed and used for IPs. Precipitations were performed using goat anti-Mal polyclonal antibodies covalently bound to magnetic beads, followed by Western blot analysis. Proteins in lysates were analysed for input control (A-C).
# THP-1 TRAM KO cells = experiment: qPCR of LPS-mediated cytokine expression in THP-1 TRAM KO cells; format: cell-based, human; details: 10 μM, LPS 100 ng/ml 2 or 4 h
# Description: Control THP-1 CRISPR cells and TRAM KO cells were pre-treated with 10 μM peptides—control peptides with amino acid substitutions (C3-Pen) or TRAM-targeting peptide Pep7-Penetratin (P7-Pen)—for 30 min before stimulation with LPS (100 ng/ml) for 2 or 4 h. Cells were lysed with Qiazol, followed by RNA isolation and quantitative PCR analysis of cytokine mRNA expression.
# In human cells (THP-1 cell line) TRAM expression was not required for TLR4-mediated IL-1β or TNF expression in response to LPS or E. coli particles (FIG. 21, lower panels). P7-Pen was as effective in reducing expression of pro-inflammatory cytokines in THP-1 TRAM KO cells as in control cells (FIG. 22).
# primary human monocytes = experiment: LDH cell viability in primary human monocytes; format: cell-based; details: compared to control peptides or P7-Pen
substance,measurement,setting,value
Ac-ITVAASVTLTGRQIKIWFQNRRMKWKK-NH2 [Peptide P7-A4-Pen],caspase-3 cleavage,caspase-3,strongly stimulates
same,effect on THP-1 cell number,THP-1 cells,anti-proliferative effect
Ac-ITVYASVTLTGRQIKIWFQNRRMKWKK-NH2 [Peptide P7-Pen],effect on proliferation of SW480 cells,SW480 cells,a degree of anti-proliferative effect
same,Mal recruitment to the MyD88 complex and IRAK1,[1],totally abrogated; also recorded: disruption
same,reducing expression of pro-inflammatory cytokines in THP-1 TRAM KO cells versus control cells,THP-1 TRAM KO cells,as effective
Ac-ITVYASVTLTGRRRRRRRRRRR-NH2 [Peptide P7-Arg11],basal toxicity,primary human monocytes,higher basal toxicity
